ChEMBL document CHEMBL1201862, “PubChem BioAssay data set” (2004)
Calls of active or inactive are those of the source.

Columns and labels:
[1] = target: T1, Mitochondrial peptide methionine sulfoxide reductase (Bos taurus, UniProt P54149); test: Absorbance-based biochemical high throughput dose response assay for activators of Methionine sulfoxide reductase A (MsrA).; assay type: functional
T1 sequence (P54149 whole entry): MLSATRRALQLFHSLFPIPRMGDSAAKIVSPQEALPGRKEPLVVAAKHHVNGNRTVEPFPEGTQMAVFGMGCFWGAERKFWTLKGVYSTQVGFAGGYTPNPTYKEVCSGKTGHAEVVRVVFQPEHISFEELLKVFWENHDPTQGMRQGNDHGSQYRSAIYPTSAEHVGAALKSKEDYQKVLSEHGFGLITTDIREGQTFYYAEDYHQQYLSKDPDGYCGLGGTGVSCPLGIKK

Beta-galactosidase = Beta-galactosidase (Escherichia coli, UniProt Q8VNN2); test: PubChem AID 485352; assay type: functional
Beta-galactosidase, sequence (Q8VNN2 whole entry): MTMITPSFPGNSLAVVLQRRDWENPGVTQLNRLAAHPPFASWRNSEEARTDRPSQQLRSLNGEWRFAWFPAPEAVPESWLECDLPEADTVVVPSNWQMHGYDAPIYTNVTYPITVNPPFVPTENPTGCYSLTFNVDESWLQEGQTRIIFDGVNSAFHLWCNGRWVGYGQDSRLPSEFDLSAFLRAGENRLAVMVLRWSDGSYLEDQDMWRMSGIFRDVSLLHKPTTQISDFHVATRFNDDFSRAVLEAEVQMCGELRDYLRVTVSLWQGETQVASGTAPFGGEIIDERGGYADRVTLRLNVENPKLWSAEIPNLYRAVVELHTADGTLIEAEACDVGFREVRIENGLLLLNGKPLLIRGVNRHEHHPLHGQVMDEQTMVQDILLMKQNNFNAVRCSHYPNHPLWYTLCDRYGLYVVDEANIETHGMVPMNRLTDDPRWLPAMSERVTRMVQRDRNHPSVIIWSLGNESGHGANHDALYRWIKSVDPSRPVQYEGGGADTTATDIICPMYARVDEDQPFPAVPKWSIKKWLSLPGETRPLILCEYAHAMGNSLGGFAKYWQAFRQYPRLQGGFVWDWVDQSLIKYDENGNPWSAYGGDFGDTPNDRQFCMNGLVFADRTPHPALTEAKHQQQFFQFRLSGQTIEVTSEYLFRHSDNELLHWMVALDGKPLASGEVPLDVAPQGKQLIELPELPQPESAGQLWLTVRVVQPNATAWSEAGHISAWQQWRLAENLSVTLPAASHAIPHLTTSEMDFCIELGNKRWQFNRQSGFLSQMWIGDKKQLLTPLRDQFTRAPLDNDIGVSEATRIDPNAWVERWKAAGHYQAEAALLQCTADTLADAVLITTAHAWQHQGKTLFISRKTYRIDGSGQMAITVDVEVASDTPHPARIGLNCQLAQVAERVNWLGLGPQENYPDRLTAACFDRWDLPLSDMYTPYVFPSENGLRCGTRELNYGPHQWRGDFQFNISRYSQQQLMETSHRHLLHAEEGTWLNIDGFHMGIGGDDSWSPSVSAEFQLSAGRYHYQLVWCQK

[2] = target: T2, Type-1 angiotensin II receptor (Homo sapiens, UniProt P30556); test: antagonism of angiotensin II type 1 receptor – cell-based, uHTS hits, selectivity assay for APJ receptor antagonist project, dose response (AID 463214); assay type: functional;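 also: antagonist potency against angiotensin II stimulated AT1 response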
T2 sequence (P30556 whole entry): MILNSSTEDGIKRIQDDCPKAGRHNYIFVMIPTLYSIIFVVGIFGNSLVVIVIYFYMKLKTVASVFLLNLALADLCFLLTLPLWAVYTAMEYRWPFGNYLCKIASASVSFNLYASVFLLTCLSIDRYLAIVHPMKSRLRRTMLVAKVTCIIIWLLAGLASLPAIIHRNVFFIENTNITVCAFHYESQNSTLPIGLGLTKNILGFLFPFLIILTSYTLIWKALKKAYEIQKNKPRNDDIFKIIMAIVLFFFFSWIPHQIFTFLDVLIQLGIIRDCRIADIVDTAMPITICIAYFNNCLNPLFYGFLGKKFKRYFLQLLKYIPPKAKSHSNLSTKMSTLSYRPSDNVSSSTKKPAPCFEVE

[3] = target: T3, Low molecular weight phosphotyrosine protein phosphatase (Homo sapiens, UniProt P24666); assay type: functional; conditions: read-out: IC50_Mean;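 also: Dose-response confirmation assay measuring inhibition of LMPTP enzyme activity by fluorescence intensity read-out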
T3 sequence (P24666 whole entry): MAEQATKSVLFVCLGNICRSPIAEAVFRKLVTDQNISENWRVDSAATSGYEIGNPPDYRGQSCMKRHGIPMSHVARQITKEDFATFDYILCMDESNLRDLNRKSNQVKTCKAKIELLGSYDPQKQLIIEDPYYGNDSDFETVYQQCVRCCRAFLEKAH

[4] = target: FAD-linked sulfhydryl oxidase ALR (Homo sapiens, UniProt P55789); test: ALR-catalysed DTT oxidation blockers – biochemical, H2O2 detection, luminescence, cherry-pick, dose response (AID 493248)
FAD-linked sulfhydryl oxidase ALR, sequence (P55789 whole entry, the tested form may be a part): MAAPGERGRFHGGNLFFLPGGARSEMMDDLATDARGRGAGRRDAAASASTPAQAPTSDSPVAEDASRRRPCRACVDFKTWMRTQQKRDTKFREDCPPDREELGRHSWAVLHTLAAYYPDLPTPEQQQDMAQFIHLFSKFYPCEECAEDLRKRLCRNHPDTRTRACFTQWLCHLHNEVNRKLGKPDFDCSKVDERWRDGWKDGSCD

[5] = target: Photoreceptor-specific nuclear receptor (Homo sapiens, UniProt Q9Y5X4); assay type: functional, cell-based;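 also: CHO-S cells with Gal4-NCOR and VP16-NR2E3 two-hybrid luciferase reporter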
Photoreceptor-specific nuclear receptor, sequence (Q9Y5X4 whole entry, the tested form may be a part): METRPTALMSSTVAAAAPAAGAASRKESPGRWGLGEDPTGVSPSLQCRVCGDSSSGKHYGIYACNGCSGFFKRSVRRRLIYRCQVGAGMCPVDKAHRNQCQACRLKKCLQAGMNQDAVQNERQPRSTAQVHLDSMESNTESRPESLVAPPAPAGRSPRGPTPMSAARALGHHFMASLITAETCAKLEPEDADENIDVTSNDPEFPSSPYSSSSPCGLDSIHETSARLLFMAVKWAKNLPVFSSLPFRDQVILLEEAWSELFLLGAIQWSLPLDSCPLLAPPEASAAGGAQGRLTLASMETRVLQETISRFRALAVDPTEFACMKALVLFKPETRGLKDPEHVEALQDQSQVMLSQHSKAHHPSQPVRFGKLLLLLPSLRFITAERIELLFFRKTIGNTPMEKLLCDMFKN

[6] = viability of uninfected HEp-2 cells – cell-based, HTS, cytotoxicity control for RSV inhibitor project, dose response (AID 2410); assay type: functional; conditions: human respiratory syncytial virus
[7] = system: Streptococcus sp. 'group A'; test: Streptococcus pyogenes SK(-)GAS viability under kanamycin – luminescence, BacTiterGlo, confirmation, counter-screen for streptokinase expression inhibitor project, dose response (AID 1900); assay type: functional, organism-based
Streptokinase A = target: T4, Streptokinase A (Streptococcus pyogenes serotype M1, UniProt P10520); test: viability-normalized secreted streptokinase activity reduction – plasminogen activation absorbance, OD405, dose response (AID 1914); assay type: functional, Streptococcus pyogenes M1 GAS;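 also: secreted streptokinase activity via plasminogen activation per viability signal from cell pellet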
T4 sequence (P10520 whole entry): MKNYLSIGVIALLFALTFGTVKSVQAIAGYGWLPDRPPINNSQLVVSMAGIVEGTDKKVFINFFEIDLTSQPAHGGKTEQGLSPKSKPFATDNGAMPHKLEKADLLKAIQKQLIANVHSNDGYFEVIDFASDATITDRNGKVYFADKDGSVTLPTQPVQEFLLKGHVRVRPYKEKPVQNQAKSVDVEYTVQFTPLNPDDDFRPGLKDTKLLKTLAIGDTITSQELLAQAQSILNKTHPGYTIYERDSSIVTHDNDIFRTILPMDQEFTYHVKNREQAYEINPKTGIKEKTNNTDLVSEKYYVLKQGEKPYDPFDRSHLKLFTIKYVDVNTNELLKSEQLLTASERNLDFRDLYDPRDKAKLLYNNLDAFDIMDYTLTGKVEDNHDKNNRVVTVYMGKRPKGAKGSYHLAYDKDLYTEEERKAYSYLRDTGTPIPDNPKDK

Streptococcus = test: GAS UMAA2166 growth inhibition – luminescence, BacTiterGlo, counter-screen for streptokinase expression inhibitor project, dose response (AID 1915); assay type: functional, organism-based;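 also: potency for reduction of bacterial viability or growth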
[8] = target: T5, Methionyl-tRNA synthetase, putative (Trypanosoma brucei brucei, UniProt Q38C91); assay type: functional, Trypanosoma brucei brucei strain 927/4 GUTat10.1
T5 sequence (Q38C91 whole entry): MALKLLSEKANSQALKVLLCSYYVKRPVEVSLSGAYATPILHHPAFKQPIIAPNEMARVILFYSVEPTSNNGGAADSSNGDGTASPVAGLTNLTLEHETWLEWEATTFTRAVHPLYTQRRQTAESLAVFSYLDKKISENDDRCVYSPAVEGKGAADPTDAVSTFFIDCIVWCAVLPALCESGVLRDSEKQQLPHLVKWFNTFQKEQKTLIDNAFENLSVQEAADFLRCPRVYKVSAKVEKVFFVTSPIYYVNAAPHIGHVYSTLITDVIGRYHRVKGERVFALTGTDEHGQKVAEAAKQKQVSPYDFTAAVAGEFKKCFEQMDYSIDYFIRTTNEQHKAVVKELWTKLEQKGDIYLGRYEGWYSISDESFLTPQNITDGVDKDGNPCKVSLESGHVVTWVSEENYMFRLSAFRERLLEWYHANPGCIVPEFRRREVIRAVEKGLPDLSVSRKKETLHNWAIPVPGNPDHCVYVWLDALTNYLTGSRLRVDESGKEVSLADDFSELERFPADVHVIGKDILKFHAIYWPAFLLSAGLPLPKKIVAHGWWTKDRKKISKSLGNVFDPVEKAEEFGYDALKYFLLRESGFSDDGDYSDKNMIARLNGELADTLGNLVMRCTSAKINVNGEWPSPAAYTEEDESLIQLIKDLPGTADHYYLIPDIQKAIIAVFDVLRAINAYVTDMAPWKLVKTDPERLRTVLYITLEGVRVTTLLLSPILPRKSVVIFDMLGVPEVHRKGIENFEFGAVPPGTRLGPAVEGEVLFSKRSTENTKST

[9] = Counterscreen for inhibitors of Trypanosoma brucei methionyl tRNA synthetase (MetRS): Luminescence-based cell-based high throughput dose response assay to identify compounds that are cytotoxic to Jurkat human T lymphocyte cells.; assay type: functional
[10] = target: T5, Methionyl-tRNA synthetase, putative; assay type: functional, Trypanosoma brucei brucei strain 927/4 GUTat10.1; remark: listed apart in the source
[11] = Luminescence Cell-Based Dose Confirmation HTS to Identify Activators of 5'UTR Stem-Loop Driven Alpha-Synuclein mRNA Translation in H4 Neuroglioblastoma Cells. [Related pubchem assays: 1829 (Project Summary), 1814 (Primary HTS)]; assay type: functional
[12] = Luminescence Cell-Based Dose Response HTS to Identify Activators of Luciferase Translation or Activity in H4 […] Cells. [Related pubchem assays: 1829 (Project Summary), 1814 (Primary HTS)]; assay type: functional
H4 = test: Luminescence Cell-Based Dose Response HTS to Identify Activators of 5'UTR Stem-Loop Driven Prion Protein mRNA Translation in H4 Neuroglioblastoma Cells. [Related pubchem assays: 1829 (Project Summary), 1814 (Primary HTS)]; assay type: functional; conditions: Homo sapiens
[13] = target: T6, Microphthalmia-associated transcription factor (Homo sapiens, UniProt O75030); test: reducers of TRPM1 reporter luminescence, concentration series – cell-based, SK-MEL-5, cherry-picked, set 3, MITF inhibitor project, dose response (AID 493073); assay type: functional;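 also: SK-MEL-5 melanoma cells with luciferase driven by the MITF target TRPM1 promoter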
T6 sequence (O75030 whole entry): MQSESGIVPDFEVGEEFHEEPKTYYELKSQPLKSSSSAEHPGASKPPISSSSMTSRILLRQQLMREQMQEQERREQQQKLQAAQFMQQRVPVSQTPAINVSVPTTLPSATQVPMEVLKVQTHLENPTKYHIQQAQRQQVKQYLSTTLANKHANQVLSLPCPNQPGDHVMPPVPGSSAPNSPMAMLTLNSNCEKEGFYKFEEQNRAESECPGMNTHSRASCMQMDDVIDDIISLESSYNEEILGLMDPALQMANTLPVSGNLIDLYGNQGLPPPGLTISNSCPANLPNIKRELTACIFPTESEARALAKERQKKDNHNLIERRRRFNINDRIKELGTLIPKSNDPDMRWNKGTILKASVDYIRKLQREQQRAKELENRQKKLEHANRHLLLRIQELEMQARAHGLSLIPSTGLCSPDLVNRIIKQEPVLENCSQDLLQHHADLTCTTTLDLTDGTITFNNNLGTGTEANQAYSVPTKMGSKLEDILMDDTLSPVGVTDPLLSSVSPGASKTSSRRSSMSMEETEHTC

[14] = target: T7, Endoribonuclease toxin MazF (Escherichia coli K-12, UniProt P0AE70); test: activation of MazEF endoribonuclease cleavage – biochemical, fluorescence, single-stranded RNA substrate, uHTS hits, dose response (AID 588481); assay type: functional
T7 sequence (P0AE70 whole entry): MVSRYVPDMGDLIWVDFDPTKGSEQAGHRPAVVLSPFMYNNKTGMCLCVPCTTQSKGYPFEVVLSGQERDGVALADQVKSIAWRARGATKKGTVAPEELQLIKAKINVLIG

[15] = target: T7, Endoribonuclease toxin MazF; test: substrate-only fluorescence increase artefacts – biochemical, single-stranded RNase substrate, counter-screen for MazEF activator project, dose response (AID 588502); assay type: functional
[16] = target: Dual specificity tyrosine-phosphorylation-regulated kinase 1A (Rattus norvegicus, UniProt Q63470); assay type: biochemical, Homo sapiens
[17] = target: T8, Rac GTPase-activating protein 1 (Homo sapiens, UniProt Q9H0H5); test: blockers of MgcRacGAP-driven Rac1 GTP hydrolysis – biochemical, ADP Hunter fluorescence, primary and confirmatory, confirmation (AID 624330); assay type: functional
T8 sequence (Q9H0H5 whole entry): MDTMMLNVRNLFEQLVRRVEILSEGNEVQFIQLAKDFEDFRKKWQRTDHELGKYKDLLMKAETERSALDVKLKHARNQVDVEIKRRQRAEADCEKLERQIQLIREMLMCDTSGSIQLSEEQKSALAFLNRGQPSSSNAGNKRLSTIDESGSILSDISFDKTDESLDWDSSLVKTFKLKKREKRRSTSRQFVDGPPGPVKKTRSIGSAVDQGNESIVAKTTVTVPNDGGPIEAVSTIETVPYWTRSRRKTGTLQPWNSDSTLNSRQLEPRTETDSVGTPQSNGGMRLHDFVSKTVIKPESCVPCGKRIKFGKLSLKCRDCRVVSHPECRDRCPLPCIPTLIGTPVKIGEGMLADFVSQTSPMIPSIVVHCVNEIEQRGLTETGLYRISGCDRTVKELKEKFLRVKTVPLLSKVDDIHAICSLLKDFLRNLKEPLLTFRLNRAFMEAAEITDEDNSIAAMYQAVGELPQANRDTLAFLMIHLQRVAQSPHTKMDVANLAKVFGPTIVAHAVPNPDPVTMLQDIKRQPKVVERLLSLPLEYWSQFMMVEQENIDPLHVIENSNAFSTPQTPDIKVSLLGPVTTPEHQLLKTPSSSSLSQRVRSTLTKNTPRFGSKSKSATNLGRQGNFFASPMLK

Cytochrome P450 3A4 = Cytochrome P450 3A4 (Homo sapiens, UniProt P08684);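 also: CYP3A4 tested as one member of a cytochrome P450 panel screen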
Cytochrome P450 3A4, sequence (P08684 whole entry): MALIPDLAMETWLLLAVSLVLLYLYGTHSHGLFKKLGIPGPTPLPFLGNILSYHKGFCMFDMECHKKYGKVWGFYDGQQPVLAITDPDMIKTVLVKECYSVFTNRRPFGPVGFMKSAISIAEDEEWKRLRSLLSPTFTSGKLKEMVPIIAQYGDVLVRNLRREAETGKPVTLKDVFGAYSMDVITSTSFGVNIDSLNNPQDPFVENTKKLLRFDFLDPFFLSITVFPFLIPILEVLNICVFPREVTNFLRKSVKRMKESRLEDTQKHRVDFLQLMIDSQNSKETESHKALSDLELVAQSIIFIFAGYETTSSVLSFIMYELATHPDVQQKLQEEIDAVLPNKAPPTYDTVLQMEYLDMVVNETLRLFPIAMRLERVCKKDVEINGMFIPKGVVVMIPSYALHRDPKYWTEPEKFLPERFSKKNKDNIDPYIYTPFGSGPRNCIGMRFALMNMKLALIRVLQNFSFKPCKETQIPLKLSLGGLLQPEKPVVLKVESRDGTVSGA

Escherichia coli = test: microbe, parasite or virus in culture

For `O=C(COC(=O)c1ccc([N+](=O)[O-])s1)NC(c1ccccc1)c1ccccc1`, the EC50 [1] was 32.8 µM (inactive).

For `COc1ccc(N=C2C(=O)Nc3ccc(C)c(Br)c32)cc1`, the EC50 (Beta-galactosidase) was > 40 µM (inactive) and the IC50 [2] was 3.94 µM (active).

With `O=C(O)c1cn(C2CC2)c2cc(N3CCN(S(=O)(=O)c4ccc5c(c4)OCCO5)CC3)c(F)cc2c1=O` the IC50 [3] was 2.89 µM (active).

In the case of `CC(=O)Nc1ccc(S(=O)(=O)N2CCN=C2SCc2ccc([N+](=O)[O-])cc2)cc1`, the AC50 [4] is reported as 0.252 µM (active) and the IC50 [5] is reported as 2.82 µM (active).

In the case of `O=C(NNC(=O)c1cc(-c2ccc(Cl)cc2Cl)nc2ccccc12)Nc1ccccc1`, the CC50 [6] is reported as 16.9 µM (active), the EC50 [7] is reported as 5.3 µM (active) and the EC50 (Streptokinase A) is reported as 20.4 µM (active). For the same molecule, the EC50 (Streptococcus) was 8.55 µM (active), the IC50 [8] was 2.74 µM (active) and the IC50 [9] was 42.2 µM (inactive). For the same molecule, the IC50 [10] was 1.28 µM (active).

In the case of `O=C(C[N+]1(CC#Cc2ccccc2)CCOCC1)c1ccc(Cl)cc1`, the EC50 (Beta-galactosidase) is reported as > 40 µM (inactive) and the IC50 [2] is reported as 39.4 µM (not active).

In the case of `O=C(Cc1ccc(S(=O)(=O)N2CCOCC2)s1)Nc1ccc(Br)c(C(F)(F)F)c1`, the IC50 [8] is reported as 19.2 µM (inactive), the IC50 [9] is reported as 46.7 µM (inactive) and the IC50 [10] is reported as 20.9 µM (inactive).

For `Cc1ccc(/N=C2\C(=O)Nc3ccccc32)cc1`, the EC50 (Beta-galactosidase) was > 40 µM (inactive) and the IC50 [2] was > 40 µM (not active).

For `COc1cc(Nc2ccc(C(=O)O)cc2[N+](=O)[O-])cc(OC)c1`, the EC50 [1] was > 104 µM (inactive).

In the case of `O=C(Nc1ccc(O)c(-c2nc3ccccc3s2)c1)c1cc(=O)c2ccccc2o1`, the IC50 [3] is reported as 5.27 µM (active).

With `Cc1ccc(SCCC(=O)N/N=C/c2cccnc2)cc1` the IC50 [8] was 29.2 µM (inactive), the IC50 [9] was 83.3 µM (inactive) and the IC50 [10] was 25.9 µM (inactive).

With `CCOC(=O)CSC1=NC(=O)/C(=C\c2ccc(OC(C)=O)cc2)S1` the EC50 [11] was 8.97 µM (active), the EC50 [12] was 10.4 µM (active) and the EC50 (H4) was 10.5 µM (active). The AC50 [13] was 5.12 µM (active), the EC50 [14] was > 99 µM (inactive) and the EC50 [15] was > 99 µM (inactive). The AC50 [16] was 0.216 µM (active), the IC50 [17] was 35.2 µM (active) and the AC50 (Cytochrome P450 3A4) was 14.1 µM (inconclusive).

In the case of `O=C(CNc1cccc(Cl)c1)c1ccc(Cl)cc1`, the EC50 (Beta-galactosidase) is reported as > 40 µM (inactive) and the IC50 [2] is reported as 5.07 µM (active).

For `Cc1cc2ncn(CCOc3ccccc3)c2cc1C`, the EC50 [11] was 19.4 µM (active), the EC50 [12] was 39 µM (active) and the EC50 (H4) was 38.8 µM (active). The AC50 (Escherichia coli) was 41.4 µM (active).
